Results taken from ChEMBL document CHEMBL1148243, “Indoline derivatives as 5-HT(2C) receptor agonists” (Bioorg Med Chem Lett, 2004).

Tests used:
[1] = biological target: T1, 5-hydroxytryptamine receptor 2C (Homo sapiens, UniProt P28335); test: Affinity for human 5-hydroxytryptamine 2C receptor expressed in mammalian cell line
T1 sequence (P28335 whole entry): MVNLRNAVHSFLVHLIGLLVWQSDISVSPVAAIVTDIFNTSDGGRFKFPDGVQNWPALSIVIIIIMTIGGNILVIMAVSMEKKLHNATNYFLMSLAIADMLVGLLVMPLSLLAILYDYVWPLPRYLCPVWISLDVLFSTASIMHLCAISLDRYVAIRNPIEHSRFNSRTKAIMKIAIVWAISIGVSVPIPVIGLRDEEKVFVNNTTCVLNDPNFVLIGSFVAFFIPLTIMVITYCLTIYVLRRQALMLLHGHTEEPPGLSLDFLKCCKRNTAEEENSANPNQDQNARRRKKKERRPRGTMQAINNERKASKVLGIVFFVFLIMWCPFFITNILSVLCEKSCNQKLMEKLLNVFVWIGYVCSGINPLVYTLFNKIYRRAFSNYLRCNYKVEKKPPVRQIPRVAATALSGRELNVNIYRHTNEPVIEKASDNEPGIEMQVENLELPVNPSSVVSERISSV

[2] = biological target: T2, 5-hydroxytryptamine receptor 2A (Homo sapiens, UniProt P28223); test: Affinity for human 5-hydroxytryptamine 2A receptor expressed in mammalian cell line
T2 sequence (P28223 whole entry): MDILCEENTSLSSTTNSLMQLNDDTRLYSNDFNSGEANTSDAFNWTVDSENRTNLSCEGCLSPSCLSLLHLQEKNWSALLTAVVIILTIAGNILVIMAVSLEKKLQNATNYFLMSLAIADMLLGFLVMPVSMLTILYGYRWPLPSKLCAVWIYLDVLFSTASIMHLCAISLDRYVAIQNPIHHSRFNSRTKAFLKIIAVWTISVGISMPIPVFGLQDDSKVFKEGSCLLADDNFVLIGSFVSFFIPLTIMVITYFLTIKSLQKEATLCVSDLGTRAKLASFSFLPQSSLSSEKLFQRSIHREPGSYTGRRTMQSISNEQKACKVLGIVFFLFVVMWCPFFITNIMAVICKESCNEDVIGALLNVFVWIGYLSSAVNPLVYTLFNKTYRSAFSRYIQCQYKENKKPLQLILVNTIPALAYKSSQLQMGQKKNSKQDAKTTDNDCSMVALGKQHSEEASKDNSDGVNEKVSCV

[3] = biological target: T3, 5-hydroxytryptamine receptor 2B (Homo sapiens, UniProt P41595); test: Affinity for human 5-hydroxytryptamine 2B receptor expressed in mammalian cell line
T3 sequence (P41595 whole entry): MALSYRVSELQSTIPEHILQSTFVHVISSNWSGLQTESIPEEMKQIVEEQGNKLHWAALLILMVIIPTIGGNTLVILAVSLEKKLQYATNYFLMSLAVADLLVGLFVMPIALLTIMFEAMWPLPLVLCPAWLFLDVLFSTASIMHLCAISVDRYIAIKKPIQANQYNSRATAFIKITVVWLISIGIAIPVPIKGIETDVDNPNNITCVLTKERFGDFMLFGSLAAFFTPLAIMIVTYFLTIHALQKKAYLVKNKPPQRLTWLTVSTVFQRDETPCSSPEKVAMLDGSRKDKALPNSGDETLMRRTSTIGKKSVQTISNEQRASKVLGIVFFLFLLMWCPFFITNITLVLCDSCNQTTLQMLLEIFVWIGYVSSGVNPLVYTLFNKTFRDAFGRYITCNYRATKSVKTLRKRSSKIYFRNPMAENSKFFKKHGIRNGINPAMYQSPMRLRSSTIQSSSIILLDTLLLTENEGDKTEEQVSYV

[4] = biological target: T1, 5-hydroxytryptamine receptor 2C; test: Functional activity against human 5-hydroxytryptamine 2C receptor expressed in CHO cells using fluorometric imaging plate reader; format: cell-based
[5] = biological target: T3, 5-hydroxytryptamine receptor 2B; test: Functional activity against human 5-hydroxytryptamine 2B receptor expressed in CHO cells using fluorometric imaging plate reader; format: cell-based
[6] = biological target: T2, 5-hydroxytryptamine receptor 2A; test: Functional activity against human 5-hydroxytryptamine 2A receptor expressed in CHO cells using fluorometric imaging plate reader; format: cell-based
[7] = biological target: T3, 5-hydroxytryptamine receptor 2B; test: Relative efficacy against human 5-hydroxytryptamine 2B receptor expressed in CHO cells using fluorometric imaging plate reader relative to 10 uM 5-HT; format: functional, cell-based
[8] = biological target: T2, 5-hydroxytryptamine receptor 2A; test: Relative efficacy against human 5-hydroxytryptamine 2A receptor expressed in CHO cells using fluorometric imaging plate reader relative to 10 uM 5-HT; format: functional, cell-based
[9] = tested on: Rattus norvegicus; test: Ability of compound to decrease food intake in rats after subcutaneous administration; format: functional; conditions: sc, read-out: MED
[10] = tested on: Rattus norvegicus; test: Ability of compound to decrease food intake in rats after oral administration; format: functional; conditions: read-out: MED

| SMILES | Ki [1] | Ki [2] | Ki [3] | EC50 [4] | EC50 [5] | EC50 [6] | Relative efficacy [7] | Relative efficacy [8] | minimal effective dose [9] | minimal effective dose [10] |
| --- | --- | --- | --- | --- | --- | --- | --- | --- | --- | --- |
| C[C@H](N)CN1CCc2cc(F)c(I)cc21 | 17 nM | 139 nM | 38 nM | 64 nM | 22 nM | 432 nM | 71% | 54% |  |  |
| C[C@H](N)CN1CCc2ccc3c(c21)CCO3 | 8.7 nM | 112 nM | 49 nM | 4.5 nM | 3 nM | 62 nM | 74% | 81% | 0.1 mg/kg | 1 mg/kg |
| C[C@H](N)CN1CCc2ccc3c(c21)CCCO3 | 38 nM | 395 nM | 355 nM | 28 nM | 36 nM | 125 nM | 67% | 71% |  |  |
| Clc1cccc(N2CCNCC2)c1 [CHLOROPHENYLPIPERAZINE] |  |  |  |  |  |  |  |  | 1 mg/kg | 10 mg/kg |
| C[C@H](N)CN1CCc2cc(F)c(C(F)(F)F)cc21 | 26 nM | 432 nM | 88 nM | 130 nM | 49 nM | 1060 nM | 86% | 45% |  |  |
| C[C@H](N)CN1CCc2cc(F)c(Cl)cc21 | 14 nM | 167 nM | 31 nM | 31 nM | 7.3 nM | 367 nM | 77% | 66% |  |  |
| CCSc1ccc2c(c1)N(C[C@H](C)N)CC2 | 16 nM | 184 nM | 189 nM | 40 nM | 72 nM | 378 nM | 67% | 71% |  |  |
| C[C@H](N)Cn1ccc2cc(F)c(Cl)cc21 | 2.3 nM | 38 nM | 5.1 nM | 18 nM | 4.3 nM |  | 71% | 72% |  |  |
| CSc1cc2c(cc1F)CCN2C[C@H](C)N | 3.2 nM | 53 nM | 21 nM | 6.7 nM | 4.1 nM | 76 nM | 72% | 87% | 0.3 mg/kg | 3 mg/kg |
| C[C@H](N)CN1CCc2ccc(Cl)cc21 | 13 nM | 364 nM | 54 nM | 44 nM | 6.5 nM | 602 nM | 76% | 55% |  |  |
| C[C@H](N)CN1CCc2ccc(Br)cc21 | 24 nM | 351 nM | 46 nM | 44 nM | 11 nM | 719 nM | 78% | 54% | 3 mg/kg | 30 mg/kg |
| CCSc1cc2c(cc1F)CCN2C[C@H](C)N | 6.4 nM | 58 nM | 62 nM | 21 nM | 31 nM | 181 nM | 66% | 80% |  |  |
| CSc1ccc2c(c1)N(C[C@H](C)N)CC2 | 5.7 nM | 171 nM | 89 nM | 26 nM | 10 nM | 164 nM | 78% | 72% |  |  |
